Test results published in US6436963B1 (priority 1998, dated 2002).

Key:
Assay type in all cases: in vivo
[1] = system: Puccinia recondita; test: Brown Rust (PUCCRT), protectant spray test on wheat seedlings; conditions: wheat (cultivar Monon), sprayed to run off at 100 ppm, inoculated after 24 hours
[2] = system: Leptosphaeria nodorum; test: Glume Blotch of Wheat (LEPTNO), protectant spray test on wheat seedlings; conditions: wheat (cultivar Monon), sprayed to run off at 100 ppm, inoculated after 24 hours
[3] = system: Phytophthora infestans; conditions: tomatoes (cultivar Rutgers), sprayed to run off at 100 ppm, inoculated after 24 hours
[4] = system: Erysiphe graminis; test: Powdery Mildew of Wheat (ERYSGT), protectant spray test on wheat seedlings; conditions: wheat (cultivar Monon), sprayed to run off at 100 ppm, inoculated after 24 hours

Compound	PUCCRT control of plant disease [1]	LEPTNO control of plant disease [2]	PHYTIN control of plant disease [3]	ERYSGT control of plant disease [4]
CNC(=O)C(=NOC)c1ccccc1COc1ncc(C(O)c2ccccc2C)cc1Cl (racemic) [Example 59]	++ (++ = 75-100% control of plant disease)	++ (++ = 75-100% control of plant disease)	++ (++ = 75-100% control of plant disease)	++ (++ = 75-100% control of plant disease)
CNC(=O)C(=NOC)c1ccccc1COc1ncc(C(C)OCc2cccc(OC)c2)cc1Cl (racemic) [Example 62]	++ (++ = 75-100% control of plant disease)	++ (++ = 75-100% control of plant disease)	− (− = 0-24% control of plant disease)	++ (++ = 75-100% control of plant disease)
CNC(=O)C(=NOC)c1ccccc1COc1ncc(C(O)c2ccc(Cl)cc2)cc1Cl (racemic) [Example 9]	++ (++ = 75-100% control of plant disease)	++ (++ = 75-100% control of plant disease)	++ (++ = 75-100% control of plant disease)	++ (++ = 75-100% control of plant disease)
CNC(=O)C(=NOC)c1ccccc1COc1ncc(C(OC(=O)OC)c2ccccc2)cc1Cl (stereo not shown) [Example 68]	++ (++ = 75-100% control of plant disease)	− (− = 0-24% control of plant disease)	++ (++ = 75-100% control of plant disease)	++ (++ = 75-100% control of plant disease)
CNC(=O)C(=NOC)c1ccccc1COc1ncc(C(OC(C)=O)c2ccccn2)cc1Cl (stereo not shown) [Example 108]	++ (++ = 75-100% control of plant disease)	++ (++ = 75-100% control of plant disease)	++ (++ = 75-100% control of plant disease)	++ (++ = 75-100% control of plant disease)
CNC(=O)C(=NOC)c1ccccc1COc1ncc(C(O)c2ccc(Oc3ccccc3)cc2)cc1Cl (stereo not shown) [Example 100]	++ (++ = 75-100% control of plant disease)	++ (++ = 75-100% control of plant disease)	++ (++ = 75-100% control of plant disease)	++ (++ = 75-100% control of plant disease)
CNC(=O)C(=NOC)c1ccccc1COc1ncc(C(O)c2cccc(C)c2)cc1Cl (stereo not shown) [Example 85]	++ (++ = 75-100% control of plant disease)	++ (++ = 75-100% control of plant disease)	− (− = 0-24% control of plant disease)	++ (++ = 75-100% control of plant disease)
CCOCC(=O)OC(c1ccccc1)c1cnc(OCc2ccccc2C(=NOC)C(=O)NC)c(Cl)c1 (racemic) [Example 63]	++ (++ = 75-100% control of plant disease)	++ (++ = 75-100% control of plant disease)	++ (++ = 75-100% control of plant disease)	++ (++ = 75-100% control of plant disease)
CNC(=O)C(=NOC)c1ccccc1COc1ncc(C(O)c2ccc(C(F)(F)F)cc2)cc1Cl (stereo not shown) [Example 102]	++ (++ = 75-100% control of plant disease)	++ (++ = 75-100% control of plant disease)	++ (++ = 75-100% control of plant disease)	++ (++ = 75-100% control of plant disease)
CNC(=O)C(=NOC)c1ccccc1COc1ncc(C(C)(C)O)cc1Cl [Example 34]	++ (++ = 75-100% control of plant disease)	+ (+ = 25-74% control of plant disease)	+ (+ = 25-74% control of plant disease)	− (− = 0-24% control of plant disease)
CNC(=O)C(=NOC)c1ccccc1COc1ncc(C(OC(=O)N(C)C)c2ccccc2)cc1Cl (racemic) [Example 45]	++ (++ = 75-100% control of plant disease)	++ (++ = 75-100% control of plant disease)	++ (++ = 75-100% control of plant disease)	++ (++ = 75-100% control of plant disease)
CNC(=O)C(=NOC)c1ccccc1COc1ncc(C(O)c2ccc(F)cc2)cc1Cl (racemic) [Example 7]	++ (++ = 75-100% control of plant disease)	++ (++ = 75-100% control of plant disease)	++ (++ = 75-100% control of plant disease)	++ (++ = 75-100% control of plant disease)
CNC(=O)C(=NOC)c1ccccc1COc1ncc(C(C)O)cc1Cl (racemic) [Example 40]	++ (++ = 75-100% control of plant disease)	++ (++ = 75-100% control of plant disease)	+ (+ = 25-74% control of plant disease)	+ (+ = 25-74% control of plant disease)
CNC(=O)C(=NOC)c1ccccc1COc1ncc(C(OC(C)=O)c2ccc(OC)cc2)cc1Cl (stereo not shown) [Example 95]	++ (++ = 75-100% control of plant disease)	++ (++ = 75-100% control of plant disease)	++ (++ = 75-100% control of plant disease)	++ (++ = 75-100% control of plant disease)
CNC(=O)C(=NOC)c1ccccc1COc1ncc(C(OC(C)=O)c2ccccc2C)cc1Cl (racemic) [Example 61]	++ (++ = 75-100% control of plant disease)	++ (++ = 75-100% control of plant disease)	++ (++ = 75-100% control of plant disease)	++ (++ = 75-100% control of plant disease)
CNC(=O)C(=NOC)c1ccccc1COc1ncc(C(OC(C)=O)c2ccccc2F)cc1Cl (stereo not shown) [Example 82]	++ (++ = 75-100% control of plant disease)	++ (++ = 75-100% control of plant disease)	++ (++ = 75-100% control of plant disease)	++ (++ = 75-100% control of plant disease)
CNC(=O)C(=NOC)c1ccccc1COc1ncc(C(C)(O)c2ccccc2)cc1Cl (racemic) [Example 26]	++ (++ = 75-100% control of plant disease)	++ (++ = 75-100% control of plant disease)	++ (++ = 75-100% control of plant disease)	++ (++ = 75-100% control of plant disease)
CNC(=O)C(=NOC)c1ccccc1COc1ncc(C(O)c2cccc(Cl)c2)cc1Cl (stereo not shown) [Example 73]	++ (++ = 75-100% control of plant disease)	++ (++ = 75-100% control of plant disease)	++ (++ = 75-100% control of plant disease)	++ (++ = 75-100% control of plant disease)
CCOC(=O)OC(c1ccccc1)c1cnc(OCc2ccccc2C(=NOC)C(=O)NC)c(Cl)c1 (racemic) [Example 33]	++ (++ = 75-100% control of plant disease)	++ (++ = 75-100% control of plant disease)	++ (++ = 75-100% control of plant disease)	+ (+ = 25-74% control of plant disease)
CNC(=O)C(=NOC)c1ccccc1COc1ncc(C(O)c2ccc(C)cc2C)cc1Cl (racemic) [Example 6]	++ (++ = 75-100% control of plant disease)	− (− = 0-24% control of plant disease)	++ (++ = 75-100% control of plant disease)	++ (++ = 75-100% control of plant disease)
CCCC(=O)OC(c1ccccc1)c1cnc(OCc2ccccc2C(=NOC)C(=O)NC)c(Cl)c1 (racemic) [Example 47]	++ (++ = 75-100% control of plant disease)	++ (++ = 75-100% control of plant disease)	++ (++ = 75-100% control of plant disease)	++ (++ = 75-100% control of plant disease)
CNC(=O)C(=NOC)c1ccccc1COc1ncc(C(OC(C)=O)c2ccc3ccccc3c2)cc1Cl (stereo not shown) [Example 83]	++ (++ = 75-100% control of plant disease)	++ (++ = 75-100% control of plant disease)	++ (++ = 75-100% control of plant disease)	++ (++ = 75-100% control of plant disease)
CNC(=O)C(=NOC)c1ccccc1COc1ncc(C(OC(=O)C(F)(F)F)c2ccccc2)cc1Cl (racemic) [Example 37]	++ (++ = 75-100% control of plant disease)	++ (++ = 75-100% control of plant disease)	++ (++ = 75-100% control of plant disease)	+ (+ = 25-74% control of plant disease)
CNC(=O)C(=NOC)c1ccccc1COc1ncc(C(OC(C)=O)c2ccccc2Cl)cc1Cl (stereo not shown) [Example 74]	++ (++ = 75-100% control of plant disease)	++ (++ = 75-100% control of plant disease)	++ (++ = 75-100% control of plant disease)	++ (++ = 75-100% control of plant disease)
CNC(=O)C(=NOC)c1ccccc1COc1ncc(C2(c3ccccc3)COC(C)(C)O2)cc1Cl (stereo not shown) [Example 123]	++ (++ = 75-100% control of plant disease)	++ (++ = 75-100% control of plant disease)	++ (++ = 75-100% control of plant disease)	++ (++ = 75-100% control of plant disease)
